This is an account of results in patent US7351731B2, “Azole derivatives and methods for making the same” (Board of Governors for Higher Education, State of Rhode …, priority 2005, dated 2008).

Converted amounts (≈) assume the structure as drawn. Where only a bound is given, the exact number is not on record here.

The subject of assay [1] is C. albicans ATCC 14053. Nature of the assay: MIC microdilution susceptibility testing, C. albicans in SDB. Conditions: for MIC: Candida albicans, ATCC14053, pH 5.6, SDB medium pH 5.6, 35-37° C.; for MIC / MIC C. albicans ATCC 14053, SDB: 24-48 h, average of three experiments; for fold more active than FLC against C. albicans in SDB: MIC ratio to FLC; for MIC C. albicans ATCC 14053, SDB: SDB medium pH 5.6, 35-37° C.; for fold less antifungal activity against C. albicans in SDB than in RPMI: SDB versus RPMI. The format is cell-based, Candida albicans. As for the experimental part:
(§1) Microorganisnis. […] Stock cultures were kept on Sabouraud dextrose agar (SDA; Becton-Dickinson and Co., Sparks, Md.). Subcultures were prepared on SDA at 35-37° C. Suspension cultures were prepared by inoculation of single colonies in 7 ml of normal saline solution.
(§2) Test compounds were dissolved in DMSO (0.56 mg/ml) and stored at 0° C. Working dilutions were made in RPMI or SDB medium. […] The final maximum concentration of DMSO in the assays was 5% (v/v).
(§3) Microdilutions for control experiments with C. albicans, A. niger, and C. neoformans were the modified method of National Committee for Clinical Laboratory Standards (NCCLS) method as described by Galgiani and by the more recent NCCLS M27-A microdilution methods as described previously. Galgiani, J. N. Antimicrob. Agents Chemother. […] Reference method for broth dilution antifungal susceptibility testing for yeasts. Approval standard. […] 9; C. arballeira, N. M., et al. Arch. Pharm.-Pharm. […] Dilutions were prepared in 0.1 ml of RPMI or SDB; the inocula were either 10^4 C. albicans or C. neoformans cells or A. niger spores. The tubes were incubated for 24-48 h at 36±1° C., and turbidity was read visually.

Assay [2] concerns C. albicans ATCC 14053. Briefly: Interaction studies (FIC index) against C. albicans in SDB. Conditions: for FIC index: mixed with FLC, C. albicans ATCC 14053, SDB. The format is cell-based, Candida albicans. An excerpt:
. Fractional Inhibitory Concentration (FIC) index [FICindex=FICA+FICB] calculation was used to determine synergism between different components of the synthesized compounds while administered separately, where FICA or FICB equals to MIC of compounds A or B in combination divided by MIC of drug A or B alone. If the FIC index is ≦0.5, the combination is synergistic. […]

Assay [3] relates to C. albicans ATCC 14053. Nature of the assay: MIC microdilution susceptibility testing, C. albicans in RPMI. Type of assay: cell-based, Candida albicans. As to conditions: RPMI medium pH 6.9, 35-37° C., 24-48 h, average of three experiments; for MIC: Candida albicans, ATCC14053, read-out: MIC C. albicans ATCC 14053, RPMI. As for the experimental part: as §1, §2, §3
The test system of the next assay is C. neoformans ATCC 66031. Nature of the assay: MIC microdilution susceptibility testing, C. neoformans in SDB. Type of assay: cell-based, Cryptococcus neoformans. As to conditions: SDB medium, 35-37° C., 24-48 h, average of three experiments; for MIC: Cryptococcus neoformans, ATCC66031. As for the experimental part: as §1, §2, §3
In the next assay the test system is A. niger ATCC 16404. Nature of the assay: MIC microdilution susceptibility testing, A. niger in SDB. The format is cell-based, Aspergillus niger. Conditions: for MIC: Aspergillus niger, ATCC16404; for MIC / MIC A. niger ATCC 16404, SDB: SDB medium, 35-37° C., 24-48 h, average of three experiments; for fold more potent than FLC against A. niger: MIC ratio to FLC, SDB. As for the experimental part: as §1, §2, §3

With `CCCCCCC(Br)C(=O)O` (stereo not shown) [2-Bromooctanoic acid, reference compound], the minimal inhibitory concentration (MIC) against C. albicans ATCC 14053 [1] came out at 865 µg/mL (≈ 3880 µM); with C. albicans ATCC 14053 [3], 865 µg/mL (≈ 3880 µM); against C. neoformans ATCC 66031, 433 µg/mL (≈ 1940 µM). In addition, in the assay with C. albicans ATCC 14053 [2], the FIC index is 0.30. In addition, the “fold less antifungal inhibition than 1g used alone” value in the assay on C. albicans ATCC 14053 [2] (mixture with FLC, C. albicans, SDB) was “approximately 2 fold”.

As for `O=C(O)CCCCCCCCCCBr` [11-Bromoundecanoic acid, reference compound], the MIC turned out to be 93 µg/mL (≈ 351 µM) in the assay with A. niger ATCC 16404, 185 µg/mL (≈ 698 µM) against C. albicans ATCC 14053 [1], 371 µg/mL (≈ 1400 µM) in the assay with C. albicans ATCC 14053 [3] and 23 µg/mL (≈ 86.7 µM) against C. neoformans ATCC 66031. In the assay on C. albicans ATCC 14053 [2], the FIC index is recorded as 0.52.

Take `CCCCCCC(Br)C(=O)OC(Cn1cncn1)(Cn1cncn1)c1ccc(F)cc1F` (stereo not shown) [Compound 1g, O-2-Bromooctanoylfluconazole]: in the assay with A. niger ATCC 16404, the “fold more potent than FLC against A. niger” value was “at least 5.2 fold” and the “MIC A. niger ATCC 16404, SDB” value was found to be 111 µg/mL (≈ 217 µM). In addition, in the assay with C. albicans ATCC 14053 [1], the “fold more active than FLC against C. albicans in SDB” value is listed as “at least 40 fold”; the “MIC C. albicans ATCC 14053, SDB” value stood at 111 µg/mL (≈ 217 µM); the “fold less antifungal activity against C. albicans in SDB than in RPMI” value came out at 8 fold. Also, the FIC index with C. albicans ATCC 14053 [2] came out at 1.05. Besides, in the assay on C. neoformans ATCC 66031, the “MIC C. neoformans ATCC 66031, SDB” value is 14 µg/mL (≈ 27.4 µM).

Turning to `O=C(CCCCCCCCCCBr)OC(Cn1cncn1)(Cn1cncn1)c1ccc(F)cc1F` [Compound 1j, O-11-Bromoundecanoylfluconazole], in the assay on A. niger ATCC 16404, the “fold more potent than FLC against A. niger” value was at least 1.5 fold and the “MIC A. niger ATCC 16404, SDB” value was 395 µg/mL (≈ 714 µM). In addition, in the assay with C. albicans ATCC 14053 [1], the “fold more active than FLC against C. albicans in SDB” value is at least 22 fold; the “MIC C. albicans ATCC 14053, SDB” value worked out at 198 µg/mL (≈ 358 µM); the “fold less antifungal activity against C. albicans in SDB than in RPMI” value is reported as 17 fold. In addition, in the assay on C. albicans ATCC 14053 [2], the FIC index came to 1.04. In addition, the “MIC C. albicans ATCC 14053, RPMI” value against C. albicans ATCC 14053 [3] worked out at 12 µg/mL (≈ 21.7 µM).

On to `[N-]=[N+]=NC(Cn1cncn1)(Cn1cncn1)c1ccc(F)cc1F` [Compound N3], for which the MIC is 610 µg/mL (≈ 1840 µM) in the assay on A. niger ATCC 16404, over 610 µg/mL against C. albicans ATCC 14053 [1], over 610 µg/mL in the assay on C. albicans ATCC 14053 [3] and 19 µg/mL (≈ 57.4 µM) against C. neoformans ATCC 66031.

As to `OC(Cn1cncn1)(Cn1cncn1)c1ccc(F)cc1F` [FLC, 1,3-bis(1H-1,2,4-triazol-1-yl)-2-(2,4-difluorophenyl)-propan-2-ol, reference compound], the MIC in the assay on A. niger ATCC 16404 is over 580 µg/mL; with C. albicans ATCC 14053 [1] it was at least 4440 µg/mL; with C. albicans ATCC 14053 [3] it was 2.3 µg/mL (≈ 7.51 µM); in the assay on C. neoformans ATCC 66031 it was 2.4 µg/mL (≈ 7.84 µM).

For the compound `Fc1ccc(C(I)(Cn2cncn2)Cn2cncn2)c(F)c1` [I], the MIC is 749 µg/mL (≈ 1800 µM) with A. niger ATCC 16404, over 749 µg/mL with C. albicans ATCC 14053 [1], 749 µg/mL (≈ 1800 µM) with C. albicans ATCC 14053 [3] and 47 µg/mL (≈ 113 µM) against C. neoformans ATCC 66031.

On to `CS(=O)(=O)C(Cn1cncn1)(Cn1cncn1)c1ccc(F)cc1F` [Mesyl], for which the minimum inhibitory concentration (MIC) was determined as 1290 µg/mL (≈ 3500 µM) against A. niger ATCC 16404, 1290 µg/mL (≈ 3500 µM) against C. albicans ATCC 14053 [1], 645 µg/mL (≈ 1750 µM) in the assay on C. albicans ATCC 14053 [3] and 40 µg/mL (≈ 109 µM) with C. neoformans ATCC 66031.

Regarding `CCCCCCCCCCCCCC(=O)O` [Tetradecanoic acid, reference compound], the MIC is over 529 µg/mL in the assay on A. niger ATCC 16404, 1750 µg/mL (≈ 7660 µM) against C. albicans ATCC 14053 [1], over 876 µg/mL in the assay on C. albicans ATCC 14053 [3] and over 529 µg/mL in the assay on C. neoformans ATCC 66031. Besides, in the assay on C. neoformans ATCC 66031, the “MIC C. neoformans ATCC 66031, SDB” value is over 529 µg/mL.

Take `Cc1ccc(S(=O)(=O)C(Cn2cncn2)(Cn2cncn2)c2ccc(F)cc2F)cc1` [Tosyl]: the MIC in the assay with A. niger ATCC 16404 was over 731 µg/mL; in the assay on C. albicans ATCC 14053 [1], over 731 µg/mL; with C. albicans ATCC 14053 [3], 365 µg/mL (≈ 821 µM); with C. neoformans ATCC 66031, 46 µg/mL (≈ 103 µM).
